These results are taken from patent US6841519B1, “Isoxazoline derivatives and herbicides containing the same as the active ingredient” (Kumiai Chemical Industry Co., Ltd., priority 1999, dated 2005).

Holding throughout (format): in vivo
Data set [1] concerns Echinochloa oryzicola Vasing. (Eo). Description: Test for herbicidal effect by paddy field soil treatment (Test Example 1). Conditions: application amount (active ingredient) 100 g/10 a, examined at the 21st day from the treatment, index per Table 40. The procedure, abridged: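 Scored on a standard scale at day 21 in the greenhouse: herbicidal effect of wettable powder applied to flooded water (3 cm depth) at 100 g a.i./10 ares, one day after sowing Eo into puddled paddy soil.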

Data set [2] has as its system rice (Or). Kind of data set: Test for crop selectivity by paddy field soil treatment (Test Example 4), phytotoxicity to rice. Conditions: transplanted two-leaf stage rice, 100 g/10 a active ingredient, 21st day. The procedure: (§1) [table] <Test Example 4> Test For Crop Selectivity By Paddy Field Soil Treatment A paddy field soil was filled in a plastic pot of 100 cm^2 and subjected to puddling. Seeds of Echinochloa oryzicola Vasing. (Eo) were sowed; two-leaf stage seedlings of rice (Or) were transplanted in a depth of 2 cm; and water was filled in a depth of 3 cm. Next day, wettable powders produced in accordance with the Formulation 1 were diluted with water and dropped on the water surface. The application amount of each wettable powder was 100 g per 10 ares in terms of the active ingredient. Then, breeding was made in a greenhouse. At the 21st day from the treatment, the phytotoxicity and herbicidal effect of each wettable powder were examined in accordance with the standard shown in Table 40.

Data set [3] has as its system Echinochloa oryzicola Vasing. (Eo). Description: Test for crop selectivity by paddy field soil treatment (Test Example 4), herbicidal effect on Eo. Conditions: 100 g/10 a active ingredient, 21st day. The procedure: as §1
In data set [4] the test system is Echinochloa crus-galli (L.) Beauv. var. crusgall (Ec). Kind of data set: Test for herbicidal effect by upland field soil treatment (Test Example 2), Ec. In outline: (§2)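 Pre-emergence soil treatment: wettable powder diluted in water and sprayed on soil just sown with Ec and Se seeds, delivering 100 g active ingredient per 10 ares in 100 liters per 10 ares. Herbicidal effect was rated against a fixed scale 21 days later, after greenhouse growth.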

Data set [5] has as its system Setaria viridis (L.) Beauv. (Se). Kind of data set: Test for herbicidal effect by upland field soil treatment (Test Example 2), Se. In outline:
as §2

In data set [6] the test system is Echinochloa crus-galli (L.) Beauv. var. crusgalli (Ec). Description: Test for herbicidal effect by upland foliage treatment (Test Example 3). Conditions: 100 g/10 a active ingredient, examined at 14th day. The procedure, abridged: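 Scored 14 days post-spray against a graded standard: greenhouse-grown Ec, 2 weeks old in upland soil, received whole-foliage application of diluted wettable powder (100 g active ingredient per 10 ares, spray volume 100 L per 10 ares).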

[7] abbreviates: 100 g/10 a active ingredient, examined at 21st day.
Where [8] appears, read: application amount (active ingredient) 100 g/10 a, examined at the 21st day from the treatment, index per Table 40.

Turning to `COCCOc1ccccc1CS(=O)(=O)C1=NOC(C)(C)C1` [Compound 1-579], the “Herbicidal effect to Eo” value in data set [1] and in data set [3] was 5 (A herbicidal effect or phytotoxicity of 90% or more) each time. Further, the “Phytotoxicity to Or” value in data set [2] is on record as 1 (A herbicidal effect or phytotoxicity of 10% to less than 30%).
As for `CC1(C)CC(S(=O)(=O)Cc2ccc(F)cc2F)=NO1` [Compound 1-505], in data set [1], the “Herbicidal effect to Eo” value was 5 (A herbicidal effect or phytotoxicity of 90% or more). In addition, the “Herbicidal effect to Ec” value in data set [4] (setting [7]) and in data set [6] was 5 (A herbicidal effect or phytotoxicity of 90% or more) in each case. In data set [5] (setting [7]), the “Herbicidal effect to Se” value is recorded as 5 (A herbicidal effect or phytotoxicity of 90% or more).
For `CC1(C)CC(S(=O)(=O)Cc2ccccc2I)=NO1` [Compound 1-521], the “Herbicidal effect to Eo” value in data set [1] is listed as 5 (A herbicidal effect or phytotoxicity of 90% or more). Besides, the “Herbicidal effect to Ec” value in data set [4] (setting [7]) and in data set [6] was 5 (A herbicidal effect or phytotoxicity of 90% or more) each time. Also, the “Herbicidal effect to Se” value in data set [5] (setting [7]) is reported as 5 (A herbicidal effect or phytotoxicity of 90% or more).
As to `CCCOc1cccc(F)c1CS(=O)(=O)C1=NOC(C)(C)C1` [Compound 1-569], the “Herbicidal effect to Eo” value in data set [1] is reported as 5 (A herbicidal effect or phytotoxicity of 90% or more). The “Herbicidal effect to Ec” value in data set [4] (setting [7]) and in data set [6] was 5 (A herbicidal effect or phytotoxicity of 90% or more) each time. Moreover, the “Herbicidal effect to Se” value in data set [5] (setting [7]) is given as 5 (A herbicidal effect or phytotoxicity of 90% or more).
Consider `CCCCOc1ccccc1CS(=O)(=O)C1=NOC(C)(C)C1` [Compound 1-568], for which, in data set [1], the “Herbicidal effect to Eo” value was 5 (A herbicidal effect or phytotoxicity of 90% or more). Besides, the “Herbicidal effect to Ec” value in data set [4] (setting [7]) and in data set [6] was 5 (A herbicidal effect or phytotoxicity of 90% or more) each time. The “Herbicidal effect to Se” value in data set [5] (setting [7]) is recorded as 5 (A herbicidal effect or phytotoxicity of 90% or more).
For `Cc1cccc(C)c1CS(=O)(=O)C1=NOC(C)(C)C1` [Compound 1-185], in data set [1], the “Herbicidal effect to Eo” value is 5 (A herbicidal effect or phytotoxicity of 90% or more). The “Herbicidal effect to Ec” value in data set [4] (setting [8]) and in data set [6] was 5 (A herbicidal effect or phytotoxicity of 90% or more) throughout. For the same molecule, the “Herbicidal effect to Se” value in data set [5] (setting [8]) is reported as 5 (A herbicidal effect or phytotoxicity of 90% or more).
`C=CCOc1cccc(C)c1CS(=O)(=O)C1=NOC(C)(C)C1` [Compound 1-606]: the “Herbicidal effect to Eo” value in data set [1] is reported as 5 (A herbicidal effect or phytotoxicity of 90% or more). Also, the “Herbicidal effect to Ec” value is recorded as 5 (A herbicidal effect or phytotoxicity of 90% or more) in data set [4] (setting [7]) and 4 (A herbicidal effect or phytotoxicity of 70% to less than 90%) in data set [6]. For the same molecule, in data set [5] (setting [7]), the “Herbicidal effect to Se” value is on record as 5 (A herbicidal effect or phytotoxicity of 90% or more).
On to `COc1cccc(OC)c1CS(=O)(=O)C1=NOC(C)(C)C1` [Compound 1-535], for which, in data set [1], the “Herbicidal effect to Eo” value is on record as 5 (A herbicidal effect or phytotoxicity of 90% or more). Besides, the “Herbicidal effect to Ec” value in data set [4] (setting [7]) is 5 (A herbicidal effect or phytotoxicity of 90% or more); in data set [6] it was 4 (A herbicidal effect or phytotoxicity of 70% to less than 90%). For the same molecule, the “Herbicidal effect to Se” value in data set [5] (setting [7]) is listed as 5 (A herbicidal effect or phytotoxicity of 90% or more).
Turning to `CC1(C2CC2)CC(S(=O)(=O)Cc2c(F)cccc2F)=NO1` (stereo not drawn) [Compound 1-378], the “Herbicidal effect to Eo” value in data set [1] is on record as 5 (A herbicidal effect or phytotoxicity of 90% or more). Further, the “Herbicidal effect to Ec” value in data set [4] (setting [8]) and in data set [6] was 5 (A herbicidal effect or phytotoxicity of 90% or more) each time. In data set [5] (setting [8]), the “Herbicidal effect to Se” value was 5 (A herbicidal effect or phytotoxicity of 90% or more).
Consider `CC1(C)CC(S(=O)(=O)Cc2cccc(C(F)(F)F)c2)=NO1` [Compound 1-158], for which the “Herbicidal effect to Eo” value in data set [1] is on record as 5 (A herbicidal effect or phytotoxicity of 90% or more). Besides, the “Herbicidal effect to Ec” value in data set [4] (setting [8]) and in data set [6] was 5 (A herbicidal effect or phytotoxicity of 90% or more) in each case. Further, the “Herbicidal effect to Se” value in data set [5] (setting [8]) is 5 (A herbicidal effect or phytotoxicity of 90% or more).
On to `CC(C)Oc1cccc(F)c1CS(=O)(=O)C1=NOC(C)(C)C1` [Compound 1-570], for which the “Herbicidal effect to Eo” value in data set [1] is recorded as 5 (A herbicidal effect or phytotoxicity of 90% or more). Further, the “Herbicidal effect to Ec” value in data set [4] (setting [7]) and in data set [6] was 5 (A herbicidal effect or phytotoxicity of 90% or more) throughout. The “Herbicidal effect to Se” value in data set [5] (setting [7]) is reported as 5 (A herbicidal effect or phytotoxicity of 90% or more).
As for `CC1(C)CC(S(=O)(=O)Cc2ccccc2)=NO1` [Compound 1-1], the “Herbicidal effect to Eo” value in data set [1] is on record as 5 (A herbicidal effect or phytotoxicity of 90% or more). Besides, the “Herbicidal effect to Ec” value in data set [4] (setting [8]) and in data set [6] was 5 (A herbicidal effect or phytotoxicity of 90% or more) in each case. Besides, the “Herbicidal effect to Se” value in data set [5] (setting [8]) is reported as 5 (A herbicidal effect or phytotoxicity of 90% or more).
With `C#CCOc1cccc(F)c1CS(=O)(=O)C1=NOC(C)(C)C1` [Compound 1-576], the “Herbicidal effect to Eo” value in data set [1] is 5 (A herbicidal effect or phytotoxicity of 90% or more). In addition, the “Herbicidal effect to Ec” value in data set [4] (setting [7]) and in data set [6] was 5 (A herbicidal effect or phytotoxicity of 90% or more) in each case. Further, the “Herbicidal effect to Se” value in data set [5] (setting [7]) is 5 (A herbicidal effect or phytotoxicity of 90% or more).
Consider `CC1(C)CC(S(=O)(=O)Cc2cccc(F)c2F)=NO1` [Compound 1-504], for which, in data set [1], the “Herbicidal effect to Eo” value is reported as 5 (A herbicidal effect or phytotoxicity of 90% or more). Besides, the “Herbicidal effect to Ec” value in data set [4] (setting [7]) and in data set [6] was 5 (A herbicidal effect or phytotoxicity of 90% or more) each time. The “Herbicidal effect to Se” value in data set [5] (setting [7]) was 5 (A herbicidal effect or phytotoxicity of 90% or more).
Consider `CC1C(S(=O)(=O)Cc2c(F)cccc2F)=NOC1(C)C` (stereo not drawn) [Compound 1-495], for which the “Herbicidal effect to Eo” value in data set [1] is reported as 5 (A herbicidal effect or phytotoxicity of 90% or more). For the same molecule, the “Herbicidal effect to Ec” value in data set [4] (setting [8]) and in data set [6] was 5 (A herbicidal effect or phytotoxicity of 90% or more) in each case. Moreover, in data set [5] (setting [8]), the “Herbicidal effect to Se” value is on record as 5 (A herbicidal effect or phytotoxicity of 90% or more).
For the molecule `CCCOc1cccc(C)c1CS(=O)(=O)C1=NOC(C)(C)C1` [Compound 1-603], the “Herbicidal effect to Eo” value in data set [1] is given as 5 (A herbicidal effect or phytotoxicity of 90% or more). The “Herbicidal effect to Ec” value is recorded as 5 (A herbicidal effect or phytotoxicity of 90% or more) in data set [4] (setting [7]) and 4 (A herbicidal effect or phytotoxicity of 70% to less than 90%) in data set [6]. Also, in data set [5] (setting [7]), the “Herbicidal effect to Se” value is on record as 5 (A herbicidal effect or phytotoxicity of 90% or more).
In the case of `Cc1cccc(CS(=O)(=O)C2=NOC(C)(C)C2)c1F` [Compound 1-187], in data set [1], the “Herbicidal effect to Eo” value is 5 (A herbicidal effect or phytotoxicity of 90% or more). In addition, the “Herbicidal effect to Ec” value in data set [4] (setting [8]) and in data set [6] was 5 (A herbicidal effect or phytotoxicity of 90% or more) in each case. Also, in data set [5] (setting [8]), the “Herbicidal effect to Se” value is listed as 5 (A herbicidal effect or phytotoxicity of 90% or more).
With `CC1(C)CC(S(=O)(=O)Cc2cccc(Cl)c2F)=NO1` [Compound 1-184], in data set [1], the “Herbicidal effect to Eo” value is on record as 5 (A herbicidal effect or phytotoxicity of 90% or more). For the same molecule, the results for the “Herbicidal effect to Ec” value in data set [4] (setting [8]) and in data set [6] were 5 (A herbicidal effect or phytotoxicity of 90% or more) and 4 (A herbicidal effect or phytotoxicity of 70% to less than 90%), respectively. In addition, the “Herbicidal effect to Se” value in data set [5] (setting [8]) was 4 (A herbicidal effect or phytotoxicity of 70% to less than 90%).
Consider `Cc1ccc(CS(=O)(=O)C2=NOC(C)(C)C2)cc1` [Compound 1-7], for which, in data set [1], the “Herbicidal effect to Eo” value is listed as 5 (A herbicidal effect or phytotoxicity of 90% or more). Further, the “Herbicidal effect to Ec” value in data set [4] (setting [8]) is reported as 5 (A herbicidal effect or phytotoxicity of 90% or more); in data set [6], 4 (A herbicidal effect or phytotoxicity of 70% to less than 90%). Besides, the “Herbicidal effect to Se” value in data set [5] (setting [8]) is 5 (A herbicidal effect or phytotoxicity of 90% or more).
